Data: US20160017326A1, “MICRORNAS AS FUNCTIONAL MEDIATORS AND BIOMARKERS OF BONE METASTASIS” (THE TRUSTEES OF PRINCETON UNIVERSITY, priority 2013, published 2016)

What was measured:
[1] = system: SCP28 breast cancer cells; test: Experimental bone metastasis: intracardiac SCP28 cells in nude mice, BLI, X-ray, histology; assay type: in vivo, mouse; conditions: for osteolytic bone lesions (X-ray): hindlimbs, pre-miRNA treated; for hind-limb tumor burden / metastatic progression by BLI: pre-miRNA 10 μg/mouse i.v. before and once per week after SCP28 inoculation; for osteolytic bone metastasis: summary statement; for TRAP+ osteoclast number: histology, tumor-bone interface
Excerpt: Hindlimb bones were excised from mice at the end point of each experiment, immediately following X-ray and BLI. Hind limb bones were fixed in 10% neutral-buffered formalin, washed and decalcified in a solution of 10% EDTA for 2 weeks. One limb from each mouse was stored in 70% ethanol for μCT analysis and Von Kossa staining, while the other limb was embedded in paraffin for hematoxylin and eosin (H&E), tartrate-resistant acid phosphatase (TRAP), or immunohistochemical staining. Non-decalcified sections were embedded in resin using the Osteo-bed Bone Embedding Kit (Sigma Aldrich, EM0200) before sectioning, followed by Von Kossa staining. Briefly, sections were rehydrated to H2O, followed by submersion in 1% silver nitrate and exposure to UV light for 5 minutes. Sections were then incubated in 2.5% Sodium Thiosulphate, followed by counterstaining with Nuclear Fast Red and dehydration through Xylene. Histomorphometric analysis was performed on H&E stained bone metastasis sections using the Zeiss Axiovert 200 microscope and the AxioVision software version 4.6.3 SP1. For quantitative analysis of lesion area, a 5× objective was used to focus on the tumor region of interest and images were acquired using an AxioCamICc3 camera set to an exposure of 50 ms. Lesions that were larger than the field of view were quantified by acquiring multiple images to encompass the entire lesion and combined in Adobe Photoshop CS5. Lesion area was quantified by outlining the region(s) of interest and quantifying lesion area. Osteoclast number was assessed as multinucleated TRAP^+ cells along the tumor-bone interface and reported as number/mm of interface as previously reported (Sethi et al., 2011). Immunohistochemical analysis was performed with heat-induced antigen retrieval and an osteocalcin antibody (ABcam, AB93876). A biotinylated secondary antibody was used with Vectastain ABC Kit (Vector Laboratories) and DAB detection kit (Zymed) to reveal the positively stained cells; nuclei were counterstained with hematoxylin
Anesthetized mice were placed on singlewrapped films (X-OMAT AR, Eastman Kodak) and exposed to X-ray radiography at 35 kV for 15 s using a MX-20 Faxitron instrument. Films were developed using a Konica SRX-101A processor. Changes in bone remodeling and osteolytic lesions (radiolucent lesions) in the hindlimbs of mice were identified and quantified using the ImageJ software (National Institutes of Health)
All procedures involving mice and experimental protocols were approved by Institutional Animal Care and Use Committee (IACUC) of Princeton University. For bone metastasis studies, 1×10^5 tumor cells were injected into the left cardiac ventricle of anesthetized female athymic Ncr-nu/nu. MiRNA precursors (10 μg/mouse in 100 μl PBS, Applied Biosystems) and Zometa (100 μg/kg) were injected intravenously. Development of metastases was monitored by measuring photon flux of BLI signals in the hindlimbs of mice after retro-orbital injection of 75 mg/kg D-Luciferin and image acquisition using the Xenogen IVIS 200 Imaging System. Data were normalized to the signal on day 0. X-ray examination was performed as previously described (Kang et al., 2003).
After further validating the ability of highly metastatic SCP28 to induce osteoclastogenesis in MOCP5 cells, SCP28 were used for analyzing the effect of miRNAs on bone metastasis development in mice. FIG. 7E illustrates representative images of MOCP-5 cells treated with MDA-MB-231 and SCP28 CMs. Scale bar represents 200 μm. FIGS. 7F and 7G illustrate quantification of osteoclast number and nuclei per osteoclast after MOCP-5 cells were treated with indicated CM as in FIG. 7C. Results were statistically significant with p<0.001 (***) as assessed by Student's t test. Nude mice were systemically treated with control or experimental pre-miRNAs immediately before, and once per week subsequently, after inoculation with SCP28 cells via intracardiac injection. […]

Mitf 3'UTR = test: 3'UTR luciferase reporter assay, Mitf; assay type: cell-based, mouse; conditions: co-transfection in HeLa, relative to negative control miRNA
Method: For NFκB reporter assays the pGL4.32 [luc2P/NF-κB-RE/Hygro] vector (Promega) was co-transfected with a Renilla-luciferase plasmid into cells. After 24 hours, cells were treated with 50 ng/ml RANKL, 50 ng/ml sICAM1, or 10 ng/ml TNFα for analysis at indicated timepoints. Wildtype and mutant 3′UTRs were PCR amplified from mouse genomic DNA. The 3′UTRs were cloned into the pMIR-REPORT vector (AMBION®) downstream of firefly luciferase. Mutations in miRNA target sites were generated using the QuikChange Multi site-directed mutagenesis kit (Stratagene). 5×10^4 HeLa cells were plated in 24-well plates 24 hours prior to transfection. 200 ng of reporter plasmid was co-transfected with the renilla-luciferase control plasmid and 10 pM pre-miRNA precursor or precursor control (AMBION®) using Lipofectamine 2000 (Invitrogen). Cells were lysed 24 hours after transfection and assayed for luciferase activity using the Glomax 96 Luminometer (Promega). Primer sequences for cloning or mutagenesis are listed below:
Reporter constructs were co-transfected with pre-miRs, as well as a Renilla luciferase plasmid for normalization.

[2] = Serum miRNA levels after injection of pre-miRNAs, qRT-PCR; assay type: in vivo, mice; conditions: qPCR of mouse serum
Method: RNA from cell lines was isolated using a miRVana miRNA isolation kit (AMBION®). Total RNA from mouse bleeds was isolated using Trizol LS (Invitrogen) according to manufacturers instructions. For microarrays, 5 μg total RNA was labeled using the NCode Rapid Labeling System (Invitrogen) and hybridized to custom arrays. The arrays were analyzed using the G2565BA scanner (Agilent Technologies), and median fluorescent intensities were obtained after subtracting background. To identify differential miRNA expression between samples, the median fluorescent intensities were normalized using the median expression values within the array and log 2 values analyzed.
mRNA was analyzed by synthesizing cDNA using the Superscript III First-strand kit (Invitrogen) and qPCR performed using the Power SYBR® green PCR master mix (Applied Biosystems). Mature miRNAs were reverse transcribed using the TaqMan Reverse Transcription Kit (Applied Biosystems) followed by real-time PCR using TaqMan miRNA assays (Applied Biosystems). All analysis was performed using an ABI 7900HT PCR machine according to the manufacturer's instructions. A standard curve was created from serial dilutions from cDNA for each gene of interest. Values were normalized by the expression of GAPDH or RNU6B in each sample.
FIG. 8C illustrates qRT-PCR miRNA expression levels from serum samples of mice taken at indicated times after injection with miRNAs. The results were statistically significant with p<0.01 (**). […] In contrast, miR-141 and miR-219 took substantially longer to clear from the serum, maintaining ˜20% of the normalized expression at 24 hours.

Substance | osteolytic bone lesions (X-ray) [1] | hind-limb tumor burden / metastatic progression by BLI [1] | osteolytic bone metastasis [1] | luciferase reporter activity, Mitf 3'UTR (Mitf 3'UTR) | serum miRNA level within 6 hours of injection [2] | clearance from serum within 24 hours [2] | TRAP+ osteoclast number [1] | reduction of Mitf expression (3'UTR reporter) (Mitf 3'UTR) | normalized serum expression remaining at 24 hours [2]
miR-133a: miRNA, SEQ ID NO: 61; delivered as pre-miRNA precursor; targets Mitf and Mmp14 (UUUGGUCCCCUUCAACCAGCUA; delivered as pre-miRNA precursor, chemistry not given here; listed as Homo sapiens) | significant bone degradation | no effect | no measurable effect | repress expression of Mitf | substantial decrease | nearly full clearance | – | – | –
miR-141: miRNA, SEQ ID NO: 69; delivered as pre-miRNA precursor; targets Mitf and Calcr (UAACACUGUCUGGUAACGAUGU; delivered as pre-miRNA precursor, chemistry not given here; listed as Homo sapiens) | decreased bone lesions | significant decrease in metastatic burden | capable of inhibiting | repress expression of Mitf | – | – | significant decrease | ~50% | ~20%
miR-190: miRNA, SEQ ID NO: 64; delivered as pre-miRNA precursor; targets Calcr (UGAUAUGUUUGAUAUAUUAGGU; delivered as pre-miRNA precursor, chemistry not given here; listed as Homo sapiens) | significant bone degradation | no effect | no measurable effect | – | substantial decrease | nearly full clearance | significant decrease | – | –
miR-219: miRNA, SEQ ID NO: 66; delivered as pre-miRNA precursor; targets Mitf and Traf6 (UGAUUGUCCAAACGCAAUUCU; delivered as pre-miRNA precursor, chemistry not given here; listed as Homo sapiens) | decreased bone lesions | significant decrease in metastatic burden | capable of inhibiting | repress expression of Mitf | – | – | significant decrease | ~20% | ~20%
